Data: the METLIN SMRT retention time set (Domingo-Almenara et al. 2019)

Assay: gradient 5% acetonitrile 3 min, to 50% in 2 min, to 85% in 15 min, held 3 min, 100 µL/min
Settings: column: Zorbax Extend-C18 2.1 x 50 mm; eluents: water / acetonitrile, 0.1% formic acid
How it was run: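 Using water and acetonitrile that each contained 0.1% formic acid, mixtures of ~100 pure standards were separated at 100 μL/min on a Zorbax Extend-C18 column (2.1 × 50 mm, 1.8 μm). The HPLC fed a quadrupole time-of-flight mass spectrometer working in positive and negative ionization mode, with dead and dwell volumes of 40 μL and 900 μL. Data were acquired over 3 months. Retention time was read from computationally picked adduct peaks after manual inspection of each.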

| Structure (SMILES) | RP-LC retention time |
| --- | --- |
| Cc1noc(-c2ccc(OC3CN(C(=O)c4cc(F)ccc4F)C3)cc2)n1 | 868 s |
| COC(=O)N1CCc2ccc(F)cc2C1C(=O)Nc1ncc(C)s1 (centres undefined) | 788 s |
| NC(=O)CNC(=O)c1nc(-c2ccsc2)nc2c1OCCO2 | 613 s |
| Cc1ccc(NC(=O)Cn2nc(N3CCSCC3)c3ccccc3c2=O)cc1 | 1170 s |
| CCc1ccc(S(=O)(=O)N2CCCC2c2nc(-c3ccc(Cl)cc3)no2)cc1 (centres undefined) | 1290 s |
| Cc1noc(C)c1S(=O)(=O)N1CCC(Cn2c(C)cnc2-c2ccccc2)C1 (centres undefined) | 658 s |
| CCCNC(=O)C1CCCN(c2nc3ncn(CC(=O)Nc4cc(F)cc(F)c4)c(=O)c3s2)C1 (centres undefined) | 744 s |
| COc1ccc(-n2c(N(C)C)nc3cc(C(=O)NC4CC4)sc32)cc1 | 653 s |
| CCCn1cc(C(=O)NC(C)c2ccc(OC)cc2)c2cccnc21 (centres undefined) | 869 s |
| COc1ccc(C(=O)Nc2nc(-c3ccc4c(c3)N(C)C(=O)CO4)c(C)s2)cc1 | 967 s |
| Cc1ccc(CNC(=O)N2CCCC2c2nc(-c3ccccc3)no2)cc1 (centres undefined) | 994 s |
| C[C@@H](NC(=O)c1ccc(F)c(F)c1)C(=O)NCc1cscn1 | 648 s |
| O=C(NCCN1CCCCCC1)c1nc(-c2ccnc(N3CCCCC3)c2)no1 | 577 s |
| Cc1nc(-c2cccc(-c3noc(-c4cncc(Br)c4)n3)c2)cs1 | 1230 s |
| CS(=O)(=O)c1cccc(CNc2nc(Nc3ccc4c(c3)CCC(=O)N4)ncc2C(F)(F)F)c1 | 737 s |
| CCOC(=O)CNC(=O)N1CCC(n2c(-c3ccc(C)cc3)nc3cccnc32)C1 (centres undefined) | 642 s |
| Cc1cccc(Nc2nc3ccncc3n(Cc3ccccc3)c2=O)c1 | 673 s |
| CCN1C(=O)c2cccnc2Sc2cc(CNC(=O)C3CCN(C(C)=O)CC3)ccc21 | 638 s |
| Cc1ccc(Cn2cccc(S(=O)(=O)N3CCCC3)c2=O)cc1 | 859 s |
| COc1ccc(-c2noc(-c3ccc(N4CCN(c5cccc(OC)c5)CC4)nc3)n2)cc1 | 1340 s |
| CC(C)NC(=O)c1ccc(OCC2CCN(C(=O)c3ccccc3)CC2)cc1 | 828 s |
| O=S(=O)(NC1CCCCCC1)c1ccc(-c2cc(C(F)(F)F)on2)o1 | 1170 s |
| Cn1c(NC(=O)C2CC2)cc(=O)n(C)c1=O | 605 s |

| Structure (SMILES) | RP-LC retention time |
| --- | --- |
| O=C(NCc1ccccc1F)c1sc2ncccc2c1-n1cccc1 | 961 s |
| CCC(C)NC(=O)Cn1nc2cc(C)nc(-c3ccc(C(F)(F)F)cc3)n2c1=O (centres undefined) | 661 s |
| Cc1ccc(NS(=O)(=O)c2cc(-c3nc(C(C)C)cs3)cs2)cc1C | 1260 s |
| CN1C(=O)C2CCCCN2c2ccc(C(=O)NCCc3ccc(Cl)cc3)cc21 (centres undefined) | 971 s |
| Cn1nc(C(=O)N2CCN3CCS(=O)(=O)N(C4CC4)C(=O)C3C2)c2ccccc21 (centres undefined) | 748 s |
| O=C(Nc1ccc2c(c1)OCCO2)c1c(O)c2cccnc2n(-c2ccc(F)cc2)c1=O | 1120 s |
| COc1ccc(Cc2nc3nccc(-c4cc5ccccc5o4)n3n2)cc1 | 1090 s |
| CCOC(=O)C1=C(CN(C)Cc2ccccc2)NC(=O)NC1c1ccc(OC)cc1 (centres undefined) | 578 s |
| Cc1cc2c(cc1S(=O)(=O)N1CCCC1C(=O)N1CCCCC1)OC(C)C(=O)N2 (centres undefined) | 710 s |
| COc1ccc(NC(=O)Cn2c(=O)nc(N3CCC(C)CC3)c3ccccc32)cc1OC | 768 s |
| COc1ccc(N2CCN(c3cc(SCC(=O)NCCC(C)C)ncn3)CC2)cc1 | 873 s |
| COc1ccc(-c2cn3ccn(-c4ccc(F)c(Cl)c4)c(=O)c3n2)cc1 | 862 s |
| OC(COc1ccccc1Cl)Cn1c(C2CC2)nc2ccccc21 (centres undefined) | 693 s |
| O=C(Nc1ccc2cn[nH]c2c1)C1c2ccccc2Oc2ccccc21 | 795 s |
| Cn1nccc1C(=O)N1CCC(c2cc(-c3ccc(F)cc3)n[nH]2)CC1 | 712 s |
| COCC(=O)N1CC(c2nc(-c3ccc(F)cc3)no2)C2(CCOCC2)C1 (centres undefined) | 731 s |
| O=C(Nc1nccs1)C1CCCN(c2ccc3cc(S(=O)(=O)N4CCCC4)ccc3n2)C1 (centres undefined) | 693 s |
| O=C1NC(=O)N2CCSC2(Cc2ccccc2)N1 (centres undefined) | 670 s |
| CC(C)(C)c1ccc(OCC(=O)Nc2ccnn2Cc2ccco2)cc1 | 1010 s |
| CCc1nnc(NS(=O)(=O)c2ccc(N)cc2)s1 | 711 s |
| O=C(NCC1CCCO1)c1cn(-c2ccccc2)nc1-c1ccccc1 (centres undefined) | 916 s |
| Cc1ccc(OCC(=O)N2C[C@@H]3C[C@H]2C[C@@H]3NS(=O)(=O)c2ccccc2)cc1 | 764 s |
| Cc1cc(C)cc(C(=O)NCc2[nH]nc3ccccc23)c1 | 814 s |

| Structure (SMILES) | RP-LC retention time |
| --- | --- |
| COc1ccc(-c2nc3ccc(Cl)cn3c2Nc2ccc3c(c2)OCO3)cc1 | 748 s |
| CCc1cccc(NC(=O)CSc2cc(N3CCN(c4ccccc4OC)CC3)ncn2)c1 | 1090 s |
| CCc1ccc(S(=O)(=O)N2c3ccccc3CC2c2nnc(C3CCOCC3)o2)cc1 (centres undefined) | 948 s |
| Cc1cccc(Cn2nc3ccc(S(=O)(=O)N4CCC(C)CC4)cn3c2=O)c1 | 1040 s |
| O=C(c1ccncc1)N1CCc2c([nH]c3ccccc23)C1c1ccc(Cl)cc1 (centres undefined) | 1000 s |
| CCc1cccc(NC(=O)Nc2c(-c3ccncc3)nc3ccccn23)c1 | 630 s |
| Cc1cccc2nnc(N3CCN(C(=O)c4cc5c(s4)CCCC5)CC3)n12 | 605 s |
| COc1cccc(-c2noc(COC(=O)C3=CN(Cc4ccccc4)S(=O)(=O)N=C3C)n2)c1 | 1110 s |
| O=C(NCCO)C(=O)NCC1(c2ccccc2)CCCC1 | 715 s |
| CC(=O)N1CCc2cc(N3CC(C(=O)Nc4ccc(N5CCOCC5)cc4)CC3=O)ccc21 (centres undefined) | 629 s |
| CCCCOc1ccc(-c2nc(C3CC(=O)N(c4ccc(F)cc4)C3)no2)cc1 (centres undefined) | 1240 s |
| Fc1ccc(-c2nc(-c3cn(-c4cccc(F)c4)nn3)no2)cc1 | 1080 s |
| CCOc1ccc(-c2[nH]ncc2CNS(=O)(=O)c2cccc(C(F)(F)F)c2)cc1 | 902 s |
| CN(CC1CCOCC1)C(=O)c1cc(F)cc(F)c1 | 725 s |
| COc1ccc(-c2c(C(=O)NCCN3CCN(C)CC3)nc3ccccn23)cc1 | 574 s |
| COc1ccc(C)cc1NC(=O)Cn1nc(N2CCOCC2)c2ccccc2c1=O | 856 s |
| CCNC(=O)NCCC1CCN(S(=O)(=O)c2ccc(C)cc2)CC1 | 748 s |
| Cc1cc(=O)c2cc(C(=O)c3ccccc3)ccc2[nH]1 | 718 s |
| O=C(c1ccc(OCC2CCCN2C(=O)c2ccc(Cl)cc2)cc1)N1CCOCC1 (centres undefined) | 795 s |
| CCN1C(=O)c2c(C(=O)NCc3ccccc3F)ncn2CC1(C)C(=O)NC1CCCC1 (centres undefined) | 741 s |
| CC(CNC(=O)C1CCN(C(=O)C2Sc3ccccc3NC2=O)CC1)c1ccccc1 (centres undefined) | 776 s |
| CC(=O)c1ccc(S(=O)(=O)N2CCCC(C)(C(=O)NCc3ccccc3C)C2)cc1 (centres undefined) | 588 s |
| CCOC(=O)c1noc2ncnc(N(C)Cc3ccccc3)c12 | 988 s |

| Structure (SMILES) | RP-LC retention time |
| --- | --- |
| COc1ccc(Br)c2c1-c1nc(NC(=O)c3cccc(F)c3)sc1C2 | 1210 s |
| Cc1ccc(-c2cc3c(=O)n(Cc4noc(-c5ccccc5)n4)ccn3n2)c(C)c1 | 1160 s |
| Cc1cc(NC(=O)c2ccc(-n3ccnc3)nn2)no1 | 553 s |
| Cc1cc(C)cc(Nc2nc(C)cc3nn(CC(=O)N4CCOCC4)c(=O)n23)c1 | 601 s |
| CCn1cc(S(=O)(=O)NCc2cc(F)cc(F)c2)c2cccnc21 | 828 s |
| CCOc1nc2ccccc2nc1N1CCCC(C(=O)N2CCCC2)C1 (centres undefined) | 1070 s |
| CC(=O)Nc1ccc(SCCCC(=O)N2CCc3ccccc32)nn1 | 706 s |
| Cc1cccc(Cn2c(=O)n(CCNC(=O)C3CCC3)c3ncccc32)c1 | 784 s |
| O=C(Cn1c(=O)c2cc(-c3ccco3)nn2c2ncccc21)Nc1ccc(F)c(F)c1 | 843 s |
| COc1cccc(NC(=O)c2cc(C(C)C)n3nccc3n2)c1 | 1070 s |
| CC1CCCCN1CCCNC(=O)Cn1ccc2cc(S(=O)(=O)N3CCCCCC3)ccc21 (centres undefined) | 682 s |
| COc1ccc(OC)c(S(=O)(=O)N2CCCC(C(=O)Nc3cccc(SC)c3)C2)c1 (centres undefined) | 972 s |
| COc1ncc(-c2ccc3nccc(-c4ccnnc4)c3c2)cc1NS(=O)(=O)c1ccc(F)cc1F | 785 s |
| COC(=O)Cn1nc(-c2nc(-c3cccc(Cl)c3)no2)ccc1=O | 960 s |
| O=C(c1ccc(F)c(F)c1)N1CCC(n2c(-c3ccco3)nc3cccnc32)C1 (centres undefined) | 776 s |
| Cc1ccnc(Nc2nc(C)c(C(=O)N3CCC(C)CC3)s2)c1 | 779 s |
| CCn1c(=O)c2ccccc2n(Cc2nc(-c3ccccc3Cl)no2)c1=O | 1000 s |
| O=C(CN1C(=O)C2CCCCN2c2ccc(C(=O)N3CCCC3)cc21)NCCCN1CCCCCC1 (centres undefined) | 639 s |
| Cc1cccc(-c2ncccc2CNS(=O)(=O)c2cccc(F)c2)c1 | 724 s |
| O=C(CCc1ccc2c(c1)CN(C(=O)C1CC1)CCO2)NC1CCS(=O)(=O)C1 (centres undefined) | 617 s |
